How the values were obtained:
[1] = tested on: 3T3 mouse fibroblast cells; test: Staining of nuclei in adherent cultured mammalian cells (Example 9); assay type: cell-based; conditions: 2 μM dye
Procedure: 3T3 mouse fibroblast cells are grown on coverslips in calf serum-supplemented DMEM medium. The coverslips of cells are washed in HBSS+. 5-DAPP/LIVE dye solutions are prepared to a final concentration of 2 μM in DMEM without serum. One group of 3T3 cells is treated with 300 μM chloroquine (group 1). These cells and control cells (group 2) not treated with chloroquine are incubated at 37° C. for 30 min. The two groups of cells are transferred to DMEM plus 5-DAPP/LIVE. The cells are incubated in the dye-containing medium for 30 min at room temperature and are subsequently washed in HBSS+and viewed by epifluorescence microscopy using a long-pass fluorescein or a rhodamine filter set.

Bacillus cereus = test: Relative rate and extent of dye uptake into living Bacillus cereus (Example 2, FIG. 1); assay type: cell-based; conditions: 2 μM dye, 23° C.
Procedure: FIG. 1. Relative Uptake of Dyes into Living Cells. Uptake of ethidium, butidium, hexidium and octidium by Bacillus cereus as described in Example 2.
Bacillus cereus is grown in nutrient broth to log phase, washed by centrifugation, and resuspended in water to a density of 5×10^6 cfu/mL (as determined in Example 1). One centimeter pathlength acrylic cuvettes containing 3 mL of cell suspension are placed in a fluorescence spectrophotometer equipped with a temperature regulated cuvette holder and magnetic stirrer. The suspensions are brought to 23° C. prior to dye addition. To a cuvette of 3 mL bacteria suspension is added 3 μL of 2 mM dye stock solutions in DMSO to give a final dye concentration of 2 μM to produce the maximum attainable fluorescence/cell at the 600 nm emission wavelength (determined as in Example 1). The peak fluorescence excitation and emission wavelengths are determined by scanning the spectrum of the dye in suspensions of Bacillus cereus incubated for 30 min with the dye. Fluorescence intensity of the suspensions is measured using 488 nm excitation and 600 nm emission wavelengths. Sampling of fluorescence is carried out at 5 or 10 Hz until the fluorescence signal appears to stabilize.

**Q.** Which results are given for `CCCCCC[n+]1c(-c2ccccc2)c2cc(N)ccc2c2ccc(N)cc21` [hexidium]?
**A.** staining distribution, chloroquine-treated cells ([1]; group 1, 300 μM chloroquine): stained throughout, but with a greater relative intensity of staining in the nucleus; staining distribution, control cells ([1]; group 2, no chloroquine): relatively equal staining in the nucleus and cytoplasm; color of nucleus and cytoplasm ([1]; one half hour, long-pass fluorescein filter (red with rhodamine excitation)): orange; extent of loading (Bacillus cereus): optimal; rate of dye loading (Bacillus cereus; 488 nm excitation, 600 nm emission): increases with carbon chain length
